According to US11866459B2, “Cocrystal of progesterone and preparation method and use thereof” (NATIONAL INSTITUTES FOR FOOD AND DRUG CONTROL, priority 2020, dated 2024):
Counter-ions that a name gives are not always drawn. Like-named read-outs stand apart in the source and are kept apart here.

Legend:
[1] = Determination of the dissolution rate (dissolution curves, stirring paddle method, HPLC); settings: for time at which the highest concentration was reached / highest value of concentration of progesterone on dissolution curve: 37±0.5° C.; for highest value of concentration of progesterone on dissolution curve: 50 to 100 rpm
Protocol: (§1) The present invention involves the following detection instruments: • Single-crystal X-ray diffractometer: Bruker P4, Mo target, \ω scan, 296.15K; • Fourier infrared spectrometer: PerkinElmer Frontier FT/IR Spectrometer, normal temperature, KBr pellets, wavelength of 4000 to 450 cm^−1; • Powder X-ray diffractometer: Rigaku D/max-25509 kw, CuKα radiation, graphite monochromator; • Differential scanning calorimetry analyzer: Mettler Toledo DSC 822e, heating rate of 10° C./min, nitrogen flow rate of 50 mL/min; • Dynamic vapour sorption analyzer: SMS DVS advantage, 25° C.; • Dissolution apparatus: Tianjin Tianda Tianfa Technology Co., Ltd. RC806D, stirring paddle method; • Drug permeation rate tester: Pion Inc μFlux™.
The two dissolution media are water and pH 1.2 hydrochloric acid solution, respectively. […] The content of progesterone at the wavelength of 241 nm was measured by the HPLC method, and the dissolution amount was calculated by the external standard method. Dissolution curves with time as the abscissa and the concentration of progesterone as the ordinate were respectively plotted, as shown in FIGS. 5 and 6.

in vitro = settings: PAMPA; for permeability level compared with metoprolol / permeation rate relative to the progesterone monomer: pH 6.8
Protocol: as §1
Since the pH of fasting intestinal fluid in a human body is 6.5 and the pH of blood is 7.4, in order to make the conditions under which the permeation rate was measured close to the environment of the human gastrointestinal tract, pH 6.8 phosphate buffer was selected as the medium in the experiment. 3 mg of progesterone monomers and cocrystals of progesterone equivalent to 3 mg of progesterone were accurately weighed, and respectively placed in a donor compartment that represents the gastrointestinal tract, and 20 ml of pH 6.8 phosphate buffer was accurately added. 20 ml of pH 7.4 ASB buffer was accurately added to a receptor compartment that represents blood. The two compartments were separated by a biomimetic membrane with an area of 1.54 cm^2. The biomimetic membrane was coated with 25 μl of simulated gastrointestinal liposomes for infiltration, which represents the cell membrane of the gastrointestinal tract. At the temperature of 37° C. and the stirring speed of 200 rpm, sampling was conducted for 4 h, with an interval of 60 s between each two sampling procedures. The drug concentration in the receptor compartment was measured with a fiber optic probe within the ultraviolet wavelength range of 250 to 350 nm. The artificial membrane permeation rate of the drug was calculated according to Formula 1 (J/Flux).
[formula] represents the rate of change of drug concentration in the receptor compartment per unit time (μg·mL^−1·min^−1); V is the volume of buffer in the receptor compartment (mL); A is the area of the biomimetic membrane (cm^2); and Ct is the initial concentration of the drug in the donor compartment (μg·mL^−1).
The level of drug permeability can be determined by comparing the permeability of the drug with that of metoprolol measured by the same method.

[2] = Determination of hygroscopicity by dynamic vapour sorption analysis; format: physicochemical; settings: 25° C.
Protocol: The nitrogen flow rate was 200 ml/min, and the relative humidity, varied in a stepped manner by a change of 10%, increased from 20% to 80%, and then dropped to 0%.

[3] = system: Female immature white rabbits; experiment: Pharmacodynamic experiment of cocrystals of progesterone: rabbit body weight and uterine index; format: in vivo; settings: for Uterine index (weight of uterus / weight of rabbit): x ± s
Protocol: Female immature white rabbits were used and randomly divided into blank group, positive control group, low dose group, medium dose group and high dose group, with 10 rabbits in each group. The dose of progesterone that should be given to each rabbit is twice the clinical human dose of progesterone, and is calculated according to the rabbit's body weight. […] The intramuscular injections were performed for a consecutive 30 days. Weighing was performed on day 1 and day 30 respectively. A part of the uterine tissue 2 cm from the junction of the uterus and vagina in the direction of the ovary was cut and weighed. The uterine index was calculated by dividing the weight of the uterus by the weight of each rabbit.

[4] = pH 1.2 hydrochloric acid solution

Row | Compound | solubility relative to the progesterone monomer [1] [times] | solubility relative to the progesterone monomer ([1]; pH 1.2) [times] | time at which the highest concentration was reached [1, 4] [min] | highest value of concentration of progesterone on dissolution curve [1, 4] [µg/mL] | time at which the highest concentration was reached ([1]; water) [min] | highest value of concentration of progesterone on dissolution curve ([1]; water) [µg/mL] | effective permeability (Pe) (in vitro) [cm/s] | permeation rate (J, Flux) (in vitro) [μg·min^−1·cm^−2] | permeability level compared with metoprolol (in vitro) | permeation rate relative to the progesterone monomer (in vitro) [times] | Papp at 4 h, 150 µg/mL (in vitro) [×10⁻⁶ cm/s] | also measured
1 | CC(=O)[C@H]1CC[C@H]2[C@@H]3CCC4=CC(=O)CC[C@]4(C)[C@H]3CC[C@]12C.O=Cc1ccc(B(O)O)cc1 [progesterone-4-formylbenzeneboronic acid cocrystal] | 1.2 | 1.1 | 120 | 8.77 | 60 | 9.06 | 0.000887 | 0.62 | high permeability | 1.9 | – | –
2 | COCCc1ccc(OCC(O)CNC(C)C)cc1 (stereo not shown) [metoprolol tartrate, reference compound] | – | – | – | – | – | – | – | – | – | – | 120 | –
3 | CC(=O)[C@H]1CC[C@H]2[C@@H]3CCC4=CC(=O)CC[C@]4(C)[C@H]3CC[C@]12C.O=C(O)c1cccc([N+](=O)[O-])c1C(=O)O [progesterone-3-nitrophthalic acid cocrystal] | 1.3 | 1.3 | 30 | 10.4 | 90 | 9.90 | 0.00146 | 0.28 | high permeability | 0.9 | – | –
4 | CC(=O)[C@H]1CC[C@H]2[C@@H]3CCC4=CC(=O)CC[C@]4(C)[C@H]3CC[C@]12C [progesterone, pregn-4-ene-3,20-dione] | – | – | 120 | 7.87 | 120 | 7.84 | – | – | high permeability | – | 1110 | hygroscopicity ([2]; dynamic vapour sorption): non-hygroscopic; change in relative mass (dynamic vapour sorption) ([2]; relative humidity 20% to 80% then to 0% in 10% steps): less than 0.2%; permeation rate (J, Flux) (in vitro; 4 h, 150 µg/mL): 0.32 μg·min^−1·cm^−2
5 | progesterone-isophthalic acid cocrystal | – | – | – | – | – | – | – | – | – | – | – | Uterine index (weight of uterus / weight of rabbit) ([3]; 3.5 mg·kg^−1 intramuscular for 30 consecutive days, low dose group): 0.025 ± 0.009%; Uterine index (weight of uterus / weight of rabbit) ([3]; 7 mg·kg^−1 intramuscular for 30 consecutive days, medium dose group): 0.029 ± 0.009 %; Uterine index (weight of uterus / weight of rabbit) ([3]; 14 mg·kg^−1 intramuscular for 30 consecutive days (high dose group / positive control group)): 0.035 ± 0.008%; change of uterine index of rabbits as the dose increased ([3]; 3.5, 7 and 14 mg·kg^−1 intramuscular, 30 days): increasing trend; statistical difference in uterine index versus positive control group ([3]; high dose group, 14 mg·kg^−1): no significant difference; statistical difference in uterine index versus positive control group ([3]; low dose group, 3.5 mg·kg^−1): significant differences; statistical difference in uterine index versus positive control group ([3]; medium dose group, 7 mg·kg^−1): no significant difference
